No end group written: not given here.

Assay [1] deals with Rat bone marrow-derived stem cells (mesenchymal stem cells). As to the kind of experiment: Evaluation of cell growth-promoting activity, WST-8 colorimetric method (Example 2). The assay is classed as cell-based. As to conditions: WST-8 absorbance at 450 nm, peptide approximately 2 μM, bFGF 10 ng/mL. Here is the method: Experimental sections were set up that used the cell growth-promoting peptides obtained in Example 1 (samples 1 to 21) as a cell growth promoter and that used a commercially available bFGF as a cell growth promoter as a comparative example. For the control, a peptide-free section (the bFGF was also not added) was set up.
(§1) The details of the evaluation testing are provided below. Each synthesized sample peptide was dissolved in PBS (phosphate-buffered physiological saline) to prepare a stock solution with a peptide concentration of 1 mM.
(§2) Rat bone marrow-derived stem cells (mesenchymal stem cells) were used as the test cells. Specifically, the test stem cells were cultured by passage on Dulbecco's MEM medium (DMEM medium: Gibco product) containing 10% fetal bovine serum (FBS: Gibco product), 2 mM of L-glutamine, 50 unit/mL of penicillin, and 50 μg/mL of streptomycin. From the second passage to the fourth passage (passages 2 to 4) were used in this evaluation testing.
(§3) Thus, the test stem cells were preliminarily recovered by treatment with a 0.05% trypsin-0.53 mM EDTA solution; a test stem cell solution, prepared with the DMEM medium containing 10 ng/mL of bFGF to provide 1×10^4 cells/mL, was seeded to each well of a 96-well plate to provide a cell count of 1×10^3 per well; and pre-cultivation was carried out overnight. The amount of medium was brought to 100 μL per well for this.
The medium in each well was then exchanged for fresh medium to which a stock solution of a peptide selected from sample 1 to 21 had been added, so as to give a concentration of the peptide in each well of approximately 2 μM. For comparison, in some wells the medium in the well was exchanged for fresh medium to which a commercially available bFGF (product of PeproTech) had been added to give a concentration of 10 ng/mL (the bFGF experimental section in Table 3).
(§4) After the addition of the sample peptide or bFGF as indicated above, the 96-well plate was placed in a CO2 incubator and cultivation at quiescence was carried out at 37° C. under 5% CO2. Medium exchange was performed every other day. The exchange medium was the same as that used at the start of cultivation (i.e., the same sample peptide or bFGF was also added to the exchange medium as in the sample peptide addition section or bFGF addition section).
During this cultivation test, a “water-soluble tetrazolium salt (WST-8)” was added as a chromogenic reagent to some wells at the start of cultivation (day 0), at two days after the start of cultivation (day 2), and at four days after the start of cultivation (day 4). After incubation for 2 hours after the addition, the cell culture fluid to which the chromogenic reagent had been added was recovered. The extent of cell growth was evaluated by a colorimetric method in which, based on reduction of the tetrazolium salt, the absorbance (OD450) at a wavelength of 450 nm was measured.

Assay [2] has the same test system. Put plainly: Evaluation of cell growth-promoting activity, WST-8 colorimetric method (Example 5). In kind it is cell-based. The settings on record: WST-8 absorbance at 450 nm, peptide approximately 2 μM, bFGF 10 ng/mL; for OD450 at the start of cultivation: day 0; for OD450 after 4 days: day 4. The procedure:
Experimental sections were set up that used the cell growth-promoting peptides obtained in Example 4 (samples 22 to 42) as a cell growth promoter and that used a commercially available bFGF as a cell growth promoter as a comparative example. For the control, a peptide-free section (the bFGF was also not added) was set up.
as §1, §2, §3
The medium in each well was then exchanged for fresh medium to which a stock solution of a peptide selected from sample 22 to 42 had been added, so as to give a concentration of the peptide in each well of approximately 2 μM. For comparison, in some wells the medium in the well was exchanged for fresh medium to which a commercially available bFGF (product of PeproTech) had been added to give a concentration of 10 ng/mL (the bFGF experimental section in Table 6).
as §4
During this cultivation test, a “water-soluble tetrazolium salt (WST-8)” was added as a chromogenic reagent to some wells at the start of cultivation (day 0) and at four days after the start of cultivation (day 4). After incubation for 2 hours after the addition, the cell culture fluid to which the chromogenic reagent had been added was recovered. The extent of cell growth was evaluated by a colorimetric method in which, based on reduction of the tetrazolium salt, the absorbance (OD450) at a wavelength of 450 nm was measured.
For orientation: Tetrazolium assays rely on reduction of a dye to a coloured formazan, in cell work by metabolically active cells.

“basic fibroblast growth factor [bFGF, reference compound]”: the “OD450 at the start of cultivation” value in assay [1] (day 0) is reported as 0.058; in assay [2], 0.051. Also, in assay [1] (day 2), the “OD450 after 2 days” value was 0.196. Moreover, the “OD450 after 4 days” value is given as 0.484 in assay [1] (day 4) and 0.499 in assay [2].
For the substance “ALLLLAAWTARAGKKRTLRKNDRKKR (ALLLLAAWTARAGKKRTLRKNDRKKR-NH2) [compound 26]”, in assay [2], the “OD450 at the start of cultivation” value stood at 0.051 and the “OD450 after 4 days” value was found to be 0.509.
Regarding “MLPGLALGKKRTLRKNDRKKR (MLPGLALGKKRTLRKNDRKKR-NH2) [compound 42]”, in assay [2], the “OD450 at the start of cultivation” value came out at 0.051 and the “OD450 after 4 days” value was determined as 0.346.
In the case of “AWTARAGKKRTLRKNDRKKR (AWTARAGKKRTLRKNDRKKR-NH2) [compound 32]”, in assay [2], the “OD450 at the start of cultivation” value is 0.051 and the “OD450 after 4 days” value is listed as 0.433.
For “MLPGLALLLLGKKRTLRKNDRKKR (MLPGLALLLLGKKRTLRKNDRKKR-NH2) [sample 39]” the same measures were 0.051 and 0.538.
For “MLPGLALLLLAGKKRTLRKNDRKKR (MLPGLALLLLAGKKRTLRKNDRKKR-NH2) [compound 38]” the same measures were 0.051 and 0.491.
On to “LLLAAWTARAGKKRTLRKNDRKKR (LLLAAWTARAGKKRTLRKNDRKKR-NH2) [compound 28]”, for which, in assay [2], the “OD450 at the start of cultivation” value is given as 0.051 and the “OD450 after 4 days” value was found to be 0.532.
As to “LALLLLAAWTARAGKKRTLRKNDRKKR (LALLLLAAWTARAGKKRTLRKNDRKKR-NH2) [compound 25]”, in assay [2], the “OD450 at the start of cultivation” value was found to be 0.051 and the “OD450 after 4 days” value is given as 0.319.
For “LAAWTARAGKKRTLRKNDRKKR (LAAWTARAGKKRTLRKNDRKKR-NH2) [compound 30]” the same measures were 0.051 and 0.413.
“MLPGLALLLLAAWTAGKKRTLRKNDRKKR (MLPGLALLLLAAWTAGKKRTLRKNDRKKR-NH2) [compound 34]”: in assay [2], the “OD450 at the start of cultivation” value is given as 0.051 and the “OD450 after 4 days” value worked out at 0.243.
For “AAWTARAGKKRTLRKNDRKKR (AAWTARAGKKRTLRKNDRKKR-NH2) [compound 31]” the same measures were 0.051 and 0.401.
For “MLPGLALLLLAAWTARAGKKRTLRKNDRKKR (MLPGLALLLLAAWTARAGKKRTLRKNDRKKR-NH2) [sample 22]” the same measures were 0.051 and 0.241.

These data come from US9238796B2, “Cell growth-promoting peptide and use thereof” (TOAGOSEI CO., LTD., priority 2010, dated 2016).
